# Values quoted from earlier work, collected in patent US6436435B1, “Liposome formulation of 5 β steroids” (Super Gen, Inc., priority 1995, dated 2002).
# B1: OB protein: protein product of the recombinant gene ob in mice and its human homologue (protein, UniProt P41160 22-167, looked up)
# Leptin: VPIQKVQDDTKTLIKTIVTRINDISHTQSVSAKQRVTGLDFIPGLHPILSLSKMDQTLAVYQQVLTSLPSQNVLQIANDLENLRDLLHLLAFSKSCSLPQTSGLQKPESLDGVLEASLYSTEVVALSRLQGSLQDILQQLDVSPEC
# What was measured:
# genetically obese mice = details: variety of routes
# [1] = tested on: severely diabetic mammals; details: oral administration
# [2] = tested on: genetically obese and diabetic mice; details: maximal benefit when ingested
# [3] = tested on: individuals suffering from Prader-Willi Syndrome; details: in vivo
# [4] = tested on: C57BL/KsJ-db/db diabetic mice; details: for effectiveness in preventing development of diabetes relative to DHEA: C57BL/KsJ-db/db diabetic mice; for blood sugar / plasma insulin concentrations: mouse, in vivo
# [5] = tested on: diabetic genetically obese mice; details: supplied in the diet
# obese mice = details: injected im, ip or iv / parenteral
# [6] = tested on: congenitally obese mice carrying the ob ob mutation
molecule,measurement,setting,value
"C[C@]12CC[C@H](O)CC1=CC[C@@H]1[C@@H]2CC[C@]2(C)C(=O)CC[C@@H]12 [DHEA, 3-β-hydroxy-androst-5-en-17-one]",rate of weight gain,genetically obese mice,decreased the rate of weight gain
same,glucose tolerance,[1],improved glucose tolerance
same,hyperglycemia,[1],restored hyperglycemia to normal levels
same,development of diabetes,[2],markedly reduced the development of diabetes
"C[C@]12CCC(=O)C[C@H]1CC[C@@H]1[C@@H]2CC[C@]2(C)C(=O)CC[C@@H]12 [ED, 5β-androstane-3,17-dione]",subjective or objective side effects,oral ED four grams per day,no significant subjective or objective side effects
same,weight loss per week per 100 kilograms of body fat,oral ED four grams per day,0.5±0.91 kilograms per week per 100 kilograms of body fat
same,mean weight loss during ED administration,"oral ED four grams per day, 10 week period, 14 obese subjects",2.8±5.5 kilograms
same,"mean fat loss, of the initial body fat content",over the 10 week period of ED administration,about 5%
same,body weight in Prader-Willi Syndrome,[3],either weight loss or a decrease in the rate of weight gain
C[C@]12CC[C@@H](O)C[C@@H]1CC[C@@H]1[C@@H]2CC[C@]2(C)C(=O)CC[C@@H]12 [androsterone],effectiveness in preventing development of diabetes relative to DHEA,[4],not
C[C@]12CC[C@H](O)C[C@@H]1CC[C@@H]1[C@@H]2CC[C@]2(C)C(=O)CC[C@@H]12 [epiandrosterone],effectiveness in preventing development of diabetes relative to DHEA,[4],not
C[C@]12CC[C@@H](O)C[C@H]1CC[C@@H]1[C@@H]2CC[C@]2(C)C(=O)CC[C@@H]12 [etiocholanolone],body weight in Prader-Willi Syndrome,[3],either weight loss or a decrease in the rate of weight gain
"C[C@]12CC[C@@H](O)C[C@H]1CC[C@@H]1[C@@H]2CC[C@]2(C)C(=O)CC[C@@H]12 [α ET, 3α-hydroxy-5β-androstane-17-one]",anti-obesity properties,[5],can prevent and arrest the development of obesity
same,"anti-obesity effect, injected",obese mice,does not exert an anti-obesity effect
same,effectiveness in preventing development of diabetes relative to DHEA,[4],four times more effective than DHEA
same,blood sugar,[4],reduce blood sugar
same,plasma insulin concentrations,[4],increased plasma insulin concentrations
"C[C@]12CC[C@H](O)C[C@H]1CC[C@@H]1[C@@H]2CC[C@]2(C)C(=O)CC[C@@H]12 [β ET, 3β-hydroxy-5β-androstane-17-one]",anti-obesity properties,[5],can prevent and arrest the development of obesity
same,"anti-obesity effect, injected",obese mice,does not exert an anti-obesity effect
same,effectiveness in preventing development of diabetes relative to DHEA,[4],four times more effective than DHEA
same,blood sugar,[4],reduce blood sugar
same,plasma insulin concentrations,[4],increased plasma insulin concentrations
B1,serum insulin and glucose levels,"[6]; highest dose tested, 10 mg/kg per day",normalized to the level typically seen in the non-mutant mice
same,body weight effect,[6]; parenteral administration,weight reducing effects
